Patent US10959968B2, “Methods for treating c-Met-dependent cancers” (Board of Supervisors of Louisiana State University and …, priority 2016, dated 2021)

What was measured:
[1] = test system: non-tumorigenic human MCF10A mammary epithelial cells; assay: Viability of non-tumorigenic mammary epithelial cells; type: cell-based; conditions: similar treatment doses; 24 h
[2] = target: ABL1 (Homo sapiens, UniProt P00519); assay: SelectScreen Kinase Profiling; type: biochemical; conditions: read-out: Mean inhibition at 10 μM of HVS (%)
ABL1, sequence (P00519 whole entry): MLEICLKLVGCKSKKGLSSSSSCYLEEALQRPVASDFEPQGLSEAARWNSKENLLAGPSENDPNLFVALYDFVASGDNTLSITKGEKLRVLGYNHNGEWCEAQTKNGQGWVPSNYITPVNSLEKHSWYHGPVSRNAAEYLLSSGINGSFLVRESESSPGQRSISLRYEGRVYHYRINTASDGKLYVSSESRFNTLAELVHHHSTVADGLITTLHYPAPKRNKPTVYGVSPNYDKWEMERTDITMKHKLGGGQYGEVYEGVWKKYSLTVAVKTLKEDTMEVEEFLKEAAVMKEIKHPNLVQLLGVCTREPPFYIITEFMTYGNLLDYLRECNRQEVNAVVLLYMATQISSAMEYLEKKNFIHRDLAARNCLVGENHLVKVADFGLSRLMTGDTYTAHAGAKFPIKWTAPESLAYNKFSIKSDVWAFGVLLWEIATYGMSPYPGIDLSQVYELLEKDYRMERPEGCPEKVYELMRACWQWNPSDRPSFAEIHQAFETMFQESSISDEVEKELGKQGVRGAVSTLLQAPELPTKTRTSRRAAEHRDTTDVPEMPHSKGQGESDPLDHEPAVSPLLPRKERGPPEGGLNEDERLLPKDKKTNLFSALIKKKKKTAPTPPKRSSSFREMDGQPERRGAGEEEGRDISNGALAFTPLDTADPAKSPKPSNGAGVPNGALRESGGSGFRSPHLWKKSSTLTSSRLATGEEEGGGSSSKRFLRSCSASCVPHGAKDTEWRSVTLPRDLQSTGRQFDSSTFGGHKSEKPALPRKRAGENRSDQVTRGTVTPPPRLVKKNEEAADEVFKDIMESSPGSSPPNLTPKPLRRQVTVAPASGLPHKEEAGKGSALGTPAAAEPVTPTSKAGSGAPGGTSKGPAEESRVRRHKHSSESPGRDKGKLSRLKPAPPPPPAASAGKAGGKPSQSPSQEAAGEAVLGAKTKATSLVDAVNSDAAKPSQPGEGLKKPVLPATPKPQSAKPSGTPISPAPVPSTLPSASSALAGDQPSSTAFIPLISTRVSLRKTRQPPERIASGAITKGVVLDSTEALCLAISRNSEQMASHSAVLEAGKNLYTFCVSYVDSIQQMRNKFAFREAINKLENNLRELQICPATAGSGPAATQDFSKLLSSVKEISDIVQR

[3] = test system: T-47D breast cancer cells; assay: HGF-stimulated growth of Met-independent cells, MTT assay; type: cell-based, human; conditions: similar treatment doses; 72 h
Description: (§1) FIG. 3. (A) Effect of HVS treatment on HGF-stimulated growth of Met-dependent MDA-MB-231, MDA-MB-468, MCF-7. and BT-474 breast cancer cells after 72 h treatment period, compared to DMSO as vehicle control. Viable cell count was determined using MTT assay. Vertical bars indicate the mean cell count±SEM of N=3 in each treatment group; (−)-oleocanthal was used as a positive control at 20 μM. (B) Effect of HVS treatment on HGF-stimulated growth of Met-independent T-47D breast cancer cells after 72 h treatment period. Viable cell count was determined using MTT assay. Vertical bars indicate the mean cell count±SEM of N=3 in each treatment group. (C) Cytotoxic effects of HVS on the highly metastatic MDA-MB-231 breast cancer cells at two different concentrations (30 and 60 μM) using LDH cytotoxicity assay. Triton X-100 was used as a positive control to cause the breakdown of all the cells and induce the total possible LDH release. (D) Effects of HVS treatment on the viability of non-tumorigenic human MCF10A mammary epithelial cells after a 24 h treatment period, compared to DMSO as vehicle control. (E) As in panel (A) but without HGF. […] Viable cell count was determined using MTT assay. Vertical bars indicate the mean cell count±SEM of N=3 in each treatment group; doxorubicin was used as a positive control at 10 μM dose. *P<0.05 as compared with vehicle treated control.
[…]. […]

[4] = test system: MDA-MB-231 breast cancer cells; assay: LDH cytotoxicity assay; type: cell-based, human; conditions: MDA-MB-231 cells; 50 μM and 100 μM
Description: as §1, with “(C) Cytotoxic effects of HVS on the highly metastatic MDA-MB-231 breast cancer cells at two different concentrations (30 and 60 μM) using LDH cytotoxicity assay.” left out
[…]. Selection of the aforementioned breast cancer cells was based on their phenotypes. […]

[5] = test system: MDA-MB-231 breast cancer cells; assay: Western blot of c-Met downstream mitogenic and FAK/Brk/paxillin/Rac1 signaling; type: cell-based, human
Description: FIG. 5. Effects of HVS treatment on c-Met downstream mitogenic and FAK/Brk/paxillin/Rac1 signaling pathways in human MDA-MB-231 breast cancer cells after a treatment period of 72 h. (A) Western Blot analysis showing HVS treatment effects on c-Met downstream mitogenic signaling molecules, Akt and MAPK, using different treatment doses, compared to the vehicle-treated control group. (B) Western Blot analysis showing HVS treatment effects on FAK/Brk/Paxillin/Rac1 signaling pathway using different treatment doses, compared to the vehicle-treated control group. The visualization of β-tubulin was used as a loading control. Representative Western Blots from each experiment are shown, N=3.
On the other hand, HVS had little or no effects on the total levels of FAK, Brk, paxillin, and Rac1 in treated cells. Exposure to antiproliferative concentrations of 8 blocked HGF-induced phosphorylation and activation of Akt and MAPK in MDA-MB-231 mammary cancer cells (FIG. 5). Activation of c-Met prevents apoptosis and maintains cancer cell survival through activation of PI3K and subsequent Akt-NFκB activation.

[6] = test system: DU145 human prostate cancer cells (pMet, pAkt, pErk); assay: Western blot of HGF-induced signaling in prostate cancer cells; type: cell-based; conditions: 30 min pretreatment, 30 min HGF
Description: FIG. 4. A) Effect of HVS treatment on HGF-induced c-Met activation in human breast cancer cells using Western Blot analysis. Treatment with HVS caused a significant, dose-responsive inhibition of HGF-induced c-Met phosphorylation in MDA-MB-231, MCF-7, and BT-474 mammary tumor cells with no effect on total c-Met levels after treatment for 72 h, as compared to their respective vehicle-treated control groups. The visualization of β-tubulin was used as a loading control. (B) Effect of HVS on HGF-induced c-Met activation and its downstream mitogenic signaling in DU145 human prostate cancer cells, as compared to vehicle-treated control group, using Western Blot analysis. Cells were pre-treated for 30 minutes with either HVS at 0.1, 0.3, 1, and 5 μM or (−)-oleocanthal at 5, 10, and 20 μM doses in serum-free 0.4-media. 33 ng/mL HGF was then added for 30 minutes. Whole cell lysates were collected and assayed by Western Blot. The visualization of α-tubulin was used as a loading control. Representative Western Blots from each experiment are shown, N=3.
DU145 prostate tumor cells were pretreated for 30 minutes with the indicated compounds. Following pretreatment, cells were pulsed for thirty minutes with HGF, cell lysates were prepared and western blot analysis was performed to identify pMet, pAkt, pErk and tubulin.

## COc1cc(CCOC(=O)/C=C/c2cc(OC)c(O)c(OC)c2)ccc1O [Compound 8, (E)-4-hydroxy-3-methoxyph-ethyl 3-(4-hydroxy-3,5-dimethoxyphenyl) acrylate]
[1]
  effect on non-tumorigenic human MCF10A cells: no discernable effects
[2]
  inhibition at 10 µM: 79%
[3]
  effect on T47-D cells which lack c-Met: no discernable effects
[4]
  LDH release: minimal LDH release
[5]; 72-h treatment
  FAK, Brk, paxillin and Rac1 phosphorylation (activation): dose-dependently suppressed
[5]; antiproliferative concentrations
  HGF-induced phosphorylation and activation of Akt and MAPK: blocked
[6]
  HGF-induced (Met dependent) signaling: effective even at submicromolar concentrations
